{"source": "patent EP4699613A1", "about": "“NOVEL USE OF CPNE7 PROTEIN-DERIVED PEPTIDE” (Hysensbio Co., Ltd, priority 2023, dated 2024)", "key": {"[1]": {"test_system": "Human dermal fibroblasts (hDFs)", "assay": "WST-8 assay, cytotoxicity in dermal fibroblasts", "type": "cell-based", "settings": "48 hours treatment; tested at 10, 100 µM, 1, 5, 10 mM; WST-8, 450nm absorbance", "method": "Human dermal fibroblasts (hDFs) were dispensed at 0.3×10^5/well in 96-well plates (using Fibroblast Growth Medium (Lonza, CC-4126) containing 2% FBS, 0.1% Insulin, 0.1% FGF, 0.1% Gentamycin sulfate-Amphotericin) and cultured for 24 hours in an incubator at 37°C, 5% CO2 conditions.\nWST-8 analysis was performed to confirm cytotoxicity of the peptide (SEQ ID NO: 96) in dermal fibroblasts. The peptide was treated on dermal fibroblasts at concentrations of 10, 100 µM, 1, 5, 10 mM respectively. After treating for 48 hours at each concentration, WST-8 solution was dispensed into the culture medium at a 10:1 ratio, light-shielded, reacted for 2 hours under 37°C incubator conditions, and then measured at 450nm absorbance with a microplate.\nThe peptide (SEQ ID NO: 96) of the present invention was treated on dermal fibroblasts at concentrations of 10, 100 µM, 1, 5, 10 mM respectively. After 48 hours, cell viability was quantified through WST-8 analysis."}, "[2]": {"test_system": "human-derived three-dimensional skin tissue", "assay": "Skin penetration of fluorescence-conjugated peptide in human-derived three-dimensional skin tissue (confocal microscopy)", "type": "in vitro ADME", "settings": "1 mM fluorescence-conjugated peptide", "method": "To confirm the possibility of skin penetration of the peptides of the present invention, three-dimensional skin tissue composed of epidermis and dermis was created using human-derived keratinocytes and dermal fibroblasts, and then fluorescence-conjugated peptide (SEQ ID NO: 96) of the present invention at 1 mM was treated. After treatment, the position of fluorescence was continuously observed through confocal microscopy at 1, 6, 12, and 24 hours.\nFITC fluorescence was attached to the lysine residue of the peptide (SEQ ID NO: 96) of the present invention to create Peptide-FITC using the peptide (SEQ ID NO: 96) of the present invention. Peptide-FITC at 1 mM was treated on human-derived three-dimensional skin tissue (TegoScience, Neoderm-ED) and the skin penetration state of Peptide-FITC was confirmed through confocal microscopy at 1 hour, 6 hours, 12 hours, and 24 hours."}}, "note": "No end group written: not given here."}
{"sequence": "KYKQKRRSYK [SEQ ID NO: 96, KYKQKRRSYK]", "values": [{"measurement": "no cytotoxicity to dermal fibroblasts up to a concentration of", "setting": "[1]", "result": "≤ 5", "unit": "mM"}, {"measurement": "significant cytotoxicity at a concentration of", "setting": "[1]", "result": 10, "unit": "mM"}, {"measurement": "position of fluorescence (skin penetration)", "setting": "[2]; after 1 hour", "result": "observed in the stratum corneum"}, {"measurement": "position of fluorescence (skin penetration)", "setting": "[2]; after 6 hours", "result": "observed in the epidermal layer"}, {"measurement": "position of fluorescence (skin penetration)", "setting": "[2]; after 24 hours", "result": "existed in the dermal layer"}, {"measurement": "position of fluorescence (skin penetration)", "setting": "[2]; from 12 hours onward", "result": "began to be observed in the dermal layer"}]}
